Like-named read-outs stand apart in the source and are kept apart here.
What was measured:
MRSA 10178 = assay: Etest, staphylococci MRSA 10178; assay type: cell-based; details: MRSA 10178
Source text: (§1) The corresponding tests are made based on the usual MIC test: the Etest® (Biomerieux) strip is deposited onto the surface of a seeded agar medium in which the booster has been incorporated. This test enables solvent effect risks, that is a possible interaction with the solvent used in vitro, to be minimised.
(§2) The control corresponds to the test made without cineol. A control is made in each solvent tested: distilled water, Tween/water and DMSO.
(§3) ED control=antibiotic alone in distilled water
(§4) DMSO control=antibiotic alone in DMSO
(§5) TE control=antibiotic alone in Tween® 80

candidas = assay: MIC measurement (dilution test) on yeast strains; assay type: cell-based, Candida; set-up: key to MIC 90 gain / MIC 50 gain: gain = MIC of antifungal alone / MIC of antifungal + booster; details: Sertaconazole with booster, solvent DMSO
Source text: Inhibitory minimum concentration measurement tests are made in a solid agar medium according to international standards in force (CLSI M7-A9 Jan 12 standards): dispersion of the compounds to be tested in a Mueller Hinton gelose. An adaptation relating to the hydrophobicity of compounds and compositions is however necessary to disperse them in the medium: dilution of the compounds in a solvent. The compounds and compositions incorporated in the agar medium can be diluted beforehand in one or more solvents (Tween® 80 diluted with water, Tween® 80 diluted with […], DMSO diluted with water). The strains are deposited onto the agar surface with a steers apparatus. In the examples, different dissolution methods for products are tested in parallel to circumvent the problems of water/solvent distribution coefficient of the molecules (antimicrobial and potentiator) whereas the bacteria grow only in the aqueous phase. The technical requirement will not intervene in in vivo tests. The same dilution methods can be implemented in a liquid medium (microplates and tubes). The same methodology is implemented with fungi. […] MIC measurement: the minimum inhibitory concentration measurement tests are made in an agar solid medium according to international standards in force (CLSI standards), according to the previously defined protocol. […] The booster contribution as compared with the MIC of the antibiotic alone is expressed in a (MIC ATB)/(MIC ATB+booster) ratio. Thereby, gains are defined: […] The yeast strains tested (n=33) belong to the […] albicans, Candida tropicalis, Candida krusei, Candida parapsilosis, Candida glabrata species.

[1] = tested on: Strain 09003, methicillin resistant S. aureus (MRSA); assay: Resistance test (resistant mutants), Strain 09003; assay type: cell-based; details: MRSA, text after Table 15
Procedure: (§6) After 48 h incubation, the presence or absence of colonies likely to be resistant mutants is observed.
(§7) ED control or DMSO=only distilled water or DMSO is added
(§8) Ciprofloxacine DMSO: addition of Ciprofloxacine in DMSO

E. Coli Strain 8150 = assay: Etest, E. Coli Strain 8150; assay type: cell-based; details: for MIC: Escherichia coli, read-out: MIC of Pipera tazo, Strain 8150; for MIC of Meropenem / MIC of Tigecycline / MIC of Pipera tazo: Strain 8150
Source text: as §1, §2, §3, §4, §5

[2] = tested on: Strain 10168, methicillin resistant S. aureus (MRSA); assay: Resistance test (resistant mutants), Strain 10168; assay type: cell-based; details: MRSA, text after Table 16
Procedure: as §6, §7, §8

E. Coli Strain 08138 = assay: Etest, E. Coli Strain 08138; assay type: cell-based; details: for MIC: Escherichia coli, read-out: MIC of Pipera tazo, Strain 08138; for MIC of Cefoxitine / MIC of Tigecycline: Strain 08138
Source text: as §1, §2, §3, §4, §5

Pseudomonas Strain 08131 = assay: Etest, Pseudomonas Strain 08131; assay type: cell-based; details: for MIC: Pseudomonas, STRAIN08131, Strain 08131, read-out: MIC of Pipera tazo; for MIC of Meropenem: Strain 08131
Source text: as §1, §2, §3, §4, §5

[3] = booster 1 mg/L in agar, Tween/water
[4] = booster 4 mg/L in agar, Tween/water
[5] = booster 16 mg/L in agar, Tween/water

## CC(=O)OCC=Cc1ccccc1 [AC, cinnamyl acetate]
MRSA 10178; booster 1 mg/L in agar, DMSO
  MIC of Cefoxitine: 4 µg/mL
  MIC of Tigecycline: 0.125 µg/mL
MRSA 10178; [3]
  MIC of Cefoxitine: 4 µg/mL
  MIC of Tigecycline: 0.125 µg/mL
MRSA 10178; booster 4 mg/L in agar, DMSO
  MIC of Cefoxitine: 1 µg/mL
  MIC of Tigecycline: 0.047 µg/mL
MRSA 10178; [4]
  MIC of Cefoxitine: 0.75 µg/mL
  MIC of Tigecycline: 0.047 µg/mL
MRSA 10178; booster 16 mg/L in agar, DMSO
  MIC of Cefoxitine: <0.016 µg/mL
  MIC of Tigecycline: <0.016 µg/mL
MRSA 10178; [5]
  MIC of Cefoxitine: <0.016 µg/mL
  MIC of Tigecycline: <0.016 µg/mL
candidas; ratio 64/100
  MIC 50 gain: 0.05
  MIC 90 gain: 0.28
candidas; ratio 64/500
  MIC 50 gain: 2.00
  MIC 90 gain: 1.00
[1]
  occurrence of mutants on addition of the compound to ciprofloxacine: does not cause the occurrence of mutants any longer
E. Coli Strain 8150; booster 1 mg/L in agar, DMSO
  MIC: 0.75 µg/mL
  MIC of Meropenem: 0.023 µg/mL
  MIC of Tigecycline: 0.064 µg/mL
E. Coli Strain 8150; [3]
  MIC: 0.5 µg/mL
  MIC of Meropenem: 0.016 µg/mL
  MIC of Tigecycline: 0.064 µg/mL
E. Coli Strain 8150; booster 4 mg/L in agar, DMSO
  MIC of Meropenem: <
  MIC of Pipera tazo: <
  MIC of Tigecycline: <
E. Coli Strain 8150; [4]
  MIC of Meropenem: <
  MIC of Pipera tazo: <
  MIC of Tigecycline: <
E. Coli Strain 8150; booster 16 mg/L in agar, DMSO
  MIC of Meropenem: <
  MIC of Pipera tazo: <
  MIC of Tigecycline: <
E. Coli Strain 8150; [5]
  MIC of Meropenem: <
  MIC of Pipera tazo: <
  MIC of Tigecycline: <
[2]
  occurrence of mutants on addition of the compound to ciprofloxacine: does not cause the occurrence of mutants any longer
E. Coli Strain 08138; booster 1 mg/L in agar, DMSO
  MIC: 6 µg/mL
  MIC of Cefoxitine: 2 µg/mL
  MIC of Tigecycline: 0.38 µg/mL
E. Coli Strain 08138; [3]
  MIC: 2 µg/mL
  MIC of Cefoxitine: 2 µg/mL
  MIC of Tigecycline: 0.25 µg/mL
E. Coli Strain 08138; booster 4 mg/L in agar, DMSO
  MIC: 4 µg/mL
  MIC of Cefoxitine: 1.5 µg/mL
  MIC of Tigecycline: 0.38 µg/mL
E. Coli Strain 08138; [4]
  MIC: 2 µg/mL
  MIC of Cefoxitine: 1.5 µg/mL
  MIC of Tigecycline: 0.19 µg/mL
E. Coli Strain 08138; booster 16 mg/L in agar, DMSO
  MIC: 8 µg/mL
  MIC of Cefoxitine: 0.5 µg/mL
  MIC of Tigecycline: 0.125 µg/mL
E. Coli Strain 08138; [5]
  MIC: 2 µg/mL
  MIC of Cefoxitine: 4 µg/mL
  MIC of Tigecycline: 0.19 µg/mL
Pseudomonas Strain 08131; booster 1 mg/L in agar, DMSO
  MIC: 6 µg/mL
  MIC of Meropenem: 1.5 µg/mL
Pseudomonas Strain 08131; [3]
  MIC: 6 µg/mL
  MIC of Meropenem: 2 µg/mL
Pseudomonas Strain 08131; booster 4 mg/L in agar, DMSO
  MIC: 3 µg/mL
  MIC of Meropenem: 0.75 µg/mL
Pseudomonas Strain 08131; [4]
  MIC: 3 µg/mL
  MIC of Meropenem: 0.5 µg/mL
Pseudomonas Strain 08131; booster 16 mg/L in agar, DMSO
  MIC: 3 µg/mL
  MIC of Meropenem: 0.75 µg/mL
Pseudomonas Strain 08131; [5]
  MIC: 3 µg/mL
  MIC of Meropenem: 0.38 µg/mL

## O=C(OCc1ccccc1)c1ccccc1 [BB, benzyl benzoate]
MRSA 10178; booster 1 mg/L in agar, DMSO
  MIC of Cefoxitine: 3 µg/mL
  MIC of Tigecycline: 0.047 µg/mL
MRSA 10178; [3]
  MIC of Cefoxitine: 3 µg/mL
  MIC of Tigecycline: 0.094 µg/mL
MRSA 10178; booster 4 mg/L in agar, DMSO
  MIC of Cefoxitine: 2 µg/mL
  MIC of Tigecycline: 0.125 µg/mL
MRSA 10178; [4]
  MIC of Cefoxitine: 2 µg/mL
  MIC of Tigecycline: 0.25 µg/mL
MRSA 10178; booster 16 mg/L in agar, DMSO
  MIC of Cefoxitine: 1 µg/mL
  MIC of Tigecycline: 0.032 µg/mL
MRSA 10178; [5]
  MIC of Cefoxitine: 1.5 µg/mL
  MIC of Tigecycline: 0.047 µg/mL
candidas; ratio 64/100
  MIC 50 gain: 0.13
  MIC 90 gain: 0.50
candidas; ratio 64/500
  MIC 50 gain: 1.00
  MIC 90 gain: 1.00
[1]
  occurrence of mutants on addition of the compound to ciprofloxacine: does not cause the occurrence of mutants any longer
E. Coli Strain 8150; booster 1 mg/L in agar, DMSO
  MIC: 0.75 µg/mL
  MIC of Meropenem: 0.047 µg/mL
  MIC of Tigecycline: 0.125 µg/mL
E. Coli Strain 8150; [3]
  MIC: 1.5 µg/mL
  MIC of Meropenem: 0.094 µg/mL
  MIC of Tigecycline: 0.125 µg/mL
E. Coli Strain 8150; booster 4 mg/L in agar, DMSO
  MIC: 1 µg/mL
  MIC of Meropenem: 0.064 µg/mL
  MIC of Tigecycline: 0.094 µg/mL
E. Coli Strain 8150; [4]
  MIC: 1 µg/mL
  MIC of Meropenem: 0.064 µg/mL
  MIC of Tigecycline: 0.19 µg/mL
E. Coli Strain 8150; booster 16 mg/L in agar, DMSO
  MIC: 1 µg/mL
  MIC of Meropenem: 0.094 µg/mL
  MIC of Tigecycline: 0.125 µg/mL
E. Coli Strain 8150; [5]
  MIC: 1.5 µg/mL
  MIC of Meropenem: 0.094 µg/mL
  MIC of Tigecycline: 0.094 µg/mL
[2]
  occurrence of mutants on addition of the compound to ciprofloxacine: does not cause the occurrence of mutants any longer
E. Coli Strain 08138; booster 1 mg/L in agar, DMSO
  MIC: 3 µg/mL
  MIC of Cefoxitine: 2 µg/mL
E. Coli Strain 08138; [3]
  MIC: 6 µg/mL
  MIC of Cefoxitine: 2 µg/mL
E. Coli Strain 08138; booster 4 mg/L in agar, DMSO
  MIC: 6 µg/mL
  MIC of Cefoxitine: 3 µg/mL
E. Coli Strain 08138; [4]
  MIC: 4 µg/mL
  MIC of Cefoxitine: 2 µg/mL
E. Coli Strain 08138; booster 16 mg/L in agar, DMSO
  MIC: 6 µg/mL
  MIC of Cefoxitine: 2 µg/mL
E. Coli Strain 08138; [5]
  MIC: 4 µg/mL
  MIC of Cefoxitine: 3 µg/mL
Pseudomonas Strain 08131; booster 1 mg/L in agar, DMSO
  MIC: 6 µg/mL
  MIC of Meropenem: 1.5 µg/mL
Pseudomonas Strain 08131; [3]
  MIC: 8 µg/mL
  MIC of Meropenem: 3 µg/mL
Pseudomonas Strain 08131; booster 4 mg/L in agar, DMSO
  MIC: 8 µg/mL
  MIC of Meropenem: 2 µg/mL
Pseudomonas Strain 08131; [4]
  MIC: 6 µg/mL
  MIC of Meropenem: 3 µg/mL
Pseudomonas Strain 08131; booster 16 mg/L in agar, DMSO
  MIC: 6 µg/mL
  MIC of Meropenem: 2 µg/mL
Pseudomonas Strain 08131; [5]
  MIC: 4 µg/mL
  MIC of Meropenem: 1 µg/mL
